Test results as given in US20040224917A1, “Compositions and methods for combination antiviral therapy” (GILEAD SCIENCES, INC., priority 2003, published 2004).
Counter-ions that a name gives are not always drawn.

How the values were obtained:
HIV-1 = conditions: in combination with recombinant soluble CD4 castanospermine and recombinant interferon-α; cited from earlier work
HIV replication = conditions: in combination with PMPA, d4T, ddC, nelfinavir, ritonavir, saquinavir; cited from earlier work
[1] = in tablets, six months at 40° C./75% RH, packaged and stored with desiccant
[2] = each dose regimen greater or equal to 200 mg, two weeks, monotherapy

## Nc1nc(=O)n([C@@H]2CS[C@H](CO)O2)cc1F (single isomer, unassigned) [Emtricitabine]
HIV; [2]
  viral suppression: ≥ 98%
  viral suppression (log 10): ≥ 1.75 log 10
HIV; once-a-day dose of 200 mg
  reduction of viral load, average: 99%
  reduction of viral load, average (log 10): 1.92 log 10

## Cc1cn([C@H]2C[C@H](N=[N+]=[N-])[C@@H](CO)O2)c(=O)[nH]c1=O [AZT, 3′-azido, 3′-deoxythymidine]
HIV-1
  synergy of antiviral activity in vitro: synergistic antiviral activity

## CC(C)(C)C(=O)OCOP(=O)(COCCn1cnc2c(N)ncnc21)OCOC(=O)C(C)(C)C [Adefovir dipivoxil]
HIV replication
  synergy of inhibition of HIV replication: minor to moderate synergistic inhibition

## CC(C)OC(=O)OCOP(=O)(CO[C@H](C)Cn1cnc2c(N)ncnc21)OCOC(=O)OC(C)C [Tenofovir disoproxil fumarate, 9-[(R)-2-[[bis[[(isopropoxycarbonyl)oxy]methoxy]phosphinyl]methoxy]propyl]adenine fumarate (1:1)]
[1]
  loss in % label strength (significant defined as ≧5% degradation): No significant loss
